Earlier results on 1 molecule are cited in patent US20070098654A1, “Nail whitening composition” (L'OREAL, priority 2005, published 2007).

Molecules are shown by their SMILES.

For this series the following is noted: at 20° C.

Take `NC(N)=O.OO` [Carbamide peroxide]: the Solubility in water entry was “about 500 g/l”.
